Reference: the supplement of paper PMC10307832

Experiments:
Test in all cases: relative viability (nuclei count vs DMSO), 5 days (fraction); higher = more cells survive
[1] = compound: C[C@@H](C(=O)N[C@@H](C1CCCCC1)C(=O)N2CCC[C@H]2C(=O)N[C@@H]3[C@@H](CC4=CC=CC=C34)OCC#CC#CCO[C@@H]5CC6=CC=CC=C6[C@@H]5NC(=O)[C@@H]7CCCN7C(=O)[C@H](C8CCCCC8)NC(=O)[C@H](C)NC)NC [AZD5582] + O=C(c1cc(Cc2n[nH]c(=O)c3ccccc23)ccc1F)N1CCN(C(=O)C2CC2)CC1 [Olaparib] (partner 8 µM)
How it was run: (§1)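 Nuclei were stained with Hoechst during a one-step fixation (final 0.05% Triton X-100, 1% formaldehyde, 1 ug/ml Hoechst) carried out 5 days after dosing, then counted on 4× images. The cells, lung cancer lines in 1536-well plates, had been dosed by pin tool the day after seeding with one drug alone or a fixed anchor-drug dose plus five library-drug doses (not always all listed) in √10 steps. Relative viability is the nuclei count in treated wells divided by that in vehicle wells, and each value is the median of duplicate plates.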

[2] = compound: Cn1nnc2c(C(N)=O)ncn2c1=O [Temozolomide] + C[C@]1(O)C[C@@H](c2nc(-c3ccc4ccc(-c5ccccc5)nc4c3)c3c(N)nccn32)C1 [Linsitinib] (partner 1 µM)
How it was run: as §1

[3] = compound: C[C@@H](C(=O)N[C@@H](C1CCCCC1)C(=O)N2CCC[C@H]2C(=O)N[C@@H]3[C@@H](CC4=CC=CC=C34)OCC#CC#CCO[C@@H]5CC6=CC=CC=C6[C@@H]5NC(=O)[C@@H]7CCCN7C(=O)[C@H](C8CCCCC8)NC(=O)[C@H](C)NC)NC [AZD5582] + CCNC(=O)c1noc(-c2cc(C(C)C)c(O)cc2O)c1-c1ccc(CN2CCOCC2)cc1 [Luminespib] (partner 0.01 µM)
How it was run: as §1

[4] = compound: Cn1nnc2c(C(N)=O)ncn2c1=O [Temozolomide] + Nc1ncn([C@H]2C[C@H](O)[C@@H](CO)O2)c(=O)n1 [Decitabine] (partner 2 µM)
How it was run: as §1

| Cell Line | relative viability ([1]; first compound 0.001581 µM) | relative viability ([1]; first compound 0.005 µM) | relative viability ([1]; first compound 0.01581 µM) | relative viability ([1]; first compound 0.05 µM) | relative viability ([2]; first compound 0.2 µM) | relative viability ([2]; first compound 0.6325 µM) | relative viability ([2]; first compound 2 µM) | relative viability ([2]; first compound 6.325 µM) | relative viability ([2]; first compound 20 µM) | relative viability ([3]; first compound 0.001581 µM) | relative viability ([3]; first compound 0.005 µM) | relative viability ([3]; first compound 0.01581 µM) | relative viability ([3]; first compound 0.05 µM) | relative viability ([4]; first compound 0.2 µM) | relative viability ([4]; first compound 0.6325 µM) | relative viability ([4]; first compound 2 µM) | relative viability ([4]; first compound 6.325 µM) | relative viability ([4]; first compound 20 µM) |
| --- | --- | --- | --- | --- | --- | --- | --- | --- | --- | --- | --- | --- | --- | --- | --- | --- | --- | --- |
| LK-2 | 0.63 | 0.702 | 0.772 | 0.675 | 0.359 | 0.543 | 0.418 | 0.382 | 0.253 | 0.178 | 0.202 | 0.191 | 0.171 | 0.318 | 0.284 | 0.263 | 0.225 | 0.211 |
| LOU-NH91 | 0.875 | 0.945 | 0.928 | 0.903 | 0.534 | 0.955 | 1.01 | 0.932 | 0.505 | 0.391 | 0.321 | 0.33 | 0.342 | 0.699 | 0.801 | 0.849 | 0.815 | 0.634 |
| LU99A | 0.279 | 0.264 | 0.213 | 0.266 | 0.595 | 0.514 | 0.551 | 0.564 | 0.572 | 0.215 | 0.227 | 0.271 | 0.266 | 0.88 | 0.833 | 0.917 | 0.848 | 0.776 |
| LXF-289 | 0.98 | 0.995 | 0.953 | 1.02 | 0.933 | 0.939 | 0.954 | 0.938 | 0.876 | 0.76 | 0.561 | 0.627 | 0.749 | 0.388 | 0.403 | 0.367 | 0.373 | 0.391 |
| NCI-H23 | 0.272 | 0.203 | 0.3 | 0.236 | 0.596 | 0.541 | 0.698 | 0.668 | 0.5 | 0.212 | 0.207 | – | 0.276 | 0.303 | 0.309 | 0.293 | 0.292 | 0.327 |
| NCI-H322M | 0.745 | 0.865 | 0.692 | 0.882 | – | 1.02 | 1.02 | 0.959 | 0.665 | 0.979 | 1.11 | – | 1.44 | 0.619 | 0.704 | 0.697 | 0.717 | 0.576 |
| NCI-H358 | 0.56 | 0.702 | 0.616 | 0.791 | 0.576 | 0.728 | 0.854 | 0.797 | 0.617 | 0.225 | 0.279 | 0.357 | 0.417 | 0.19 | 0.224 | 0.223 | 0.228 | 0.207 |
| NCI-H441 | 0.504 | 0.541 | 0.603 | 0.395 | 0.651 | 0.601 | 0.548 | 0.451 | 0.529 | 0.313 | 0.388 | – | 0.422 | 0.255 | 0.279 | 0.226 | 0.278 | 0.254 |
| NCI-H460 | 0.36 | 0.411 | 0.345 | 0.413 | 0.959 | 0.801 | 0.79 | 0.727 | 0.877 | 0.0278 | 0.039 | 0.0382 | 0.0351 | 0.523 | 0.481 | 0.479 | 0.439 | 0.463 |
| NCI-H520 | 0.302 | 0.274 | 0.382 | 0.365 | 1.03 | 0.904 | 0.98 | 0.941 | 1.04 | 0.228 | 0.276 | 0.247 | 0.212 | 0.54 | 0.467 | 0.484 | 0.517 | 0.548 |
| NCI-H596 | 0.566 | – | 0.802 | 0.252 | 1.16 | 1.08 | 1.02 | 1.09 | 1.02 | – | – | 0.931 | 0.551 | 1.13 | 1.07 | 1.03 | 1.02 | 0.905 |
| NCI-H647 | 0.492 | 0.587 | 0.6 | 0.589 | 1.27 | 1.2 | 1.15 | 0.776 | 0.295 | 0.145 | 0.149 | 0.171 | 0.107 | 0.339 | 0.429 | 0.337 | 0.283 | 0.293 |
| NCI-H650 | 0.321 | 0.32 | 0.366 | 0.307 | 1.08 | 0.893 | 1.05 | 0.735 | 0.83 | 0.704 | 0.68 | 0.745 | 0.636 | 0.355 | 0.319 | 0.348 | 0.303 | 0.339 |
| NCI-H661 | 0.7 | 0.758 | 0.787 | 0.737 | – | 0.54 | 0.641 | 0.442 | 0.525 | 0.898 | 0.894 | 0.907 | 0.853 | 0.527 | 0.598 | 0.632 | 0.495 | 0.545 |
| NCI-H727 | 0.698 | 0.73 | 0.65 | 0.781 | 0.287 | 0.329 | 0.196 | 0.224 | 0.233 | 0.67 | 0.236 | 0.507 | 0.311 | – | 0.876 | 0.938 | 0.848 | 0.838 |
